{"source": "patent US4301065A", "about": "“Novel polypeptides having thymic activity or an antagonistic activity and processes for their synthesis” (Agence Nationale de Valorisation de la Recherche (ANVAR), priority 1977, dated 1981)", "key": {"thymectomised mice [1]": {"tested_on": "thymectomised mice", "assay": "Kinetics of the activity in the serum after injection of peptide without carboxymethyl cellulose", "assay_type": "in vivo", "details": "1 ng of polypeptide injected into thymectomised mice; active serum dilutions against time; FIGS. 1 to 3", "from_the_text": "These kinetics have also been established for active products, but without any delay action, by way of comparison. The results of these tests have been established in the form of curves in FIGS. 1, 2 and 3 of the accompanying drawings."}, "[2]": {"tested_on": "cells of the spleen forming rosettes (RFC)", "assay": "Rosette test in vitro (thymic activity)", "assay_type": "cell-based, adult C 57/B1 6 mice", "details": "for Activity in the rosette test (control peptides): in vitro, control peptides of similar molecular weight", "method": "The thymic activity of the polypeptide is established by incubation in a hemolysis tube with 3×10^6 cells of the spleen originating from adult C 57/B1 6 mice (supplied by the Centre d'Elevage des Animaux de Laboratoire of C.N.R.S. (45 Orleans, La Source), thymectomised 10 to 20 days previously. The thymectomy method is described by M. Dardenne and J. F. Bach in Immunology, 25, 343 (1973) on page 344. The contents of this article are incorporated herein by reference.\nThe incubation is carried out for 90 minutes at 37° C. in the presence of azathioprine (Az) at a concentration of 10 μg/ml.\nOn completion of the incubation, 12×10^6 red cells from sheep's blood (SRBC) are added to the cells in the test specimen. The cells in the specimen are centrifuged for 6 minutes at 200 g and carefully brought gently into suspension by rotation on a roller (diameter 10 cm) at a low speed (10 r.p.m.). The RFC are counted in a hematocytometer.\n(1) Activity in vitro in the rosette test."}, "[3]": {"tested_on": "rosette-forming cells of the spleen of thymectomised mice", "assay": "Test in vivo on the spleen: correction of the reactivity of rosette-forming spleen cells to azathioprine", "details": "Table IV, quantity injected 0,1 ng, individual values", "method": "(3) Correction of the abnormal reactivity of the cells forming the rosettes of the spleen with azathioprine in thymectomised mice 24 hours after injecting the peptide (0.1, 1 and 10 ng) bonded to the carboxymethyl cellulose.\nThe tests on the spleen were carried out by determining the quantity of azathioprine which is necessary for inhibiting the rosette-forming cells of the spleen of thymectomised mice after an established time (24 hours and possibly also 48 hours) after the injection of an established quantity of polypeptide (0.1, 1 or 10 ng)."}, "antibodies": {"tested_on": "antibodies", "assay": "Bonding with the antibodies", "assay_type": "binding", "set-up": "key: +: the peptide is bonded; -: is not bonded to the antibodies", "from_the_text": "The suitability of the peptides for being bonded to the antibodies is indicated by the + and - symbols, which respectively signify that the peptide is bonded or is not bonded to the antibodies."}, "thymectomised mice [4]": {"tested_on": "thymectomised mice", "assay": "Activity in vivo: study of the serum after injection of peptide absorbed on carboxymethyl cellulose", "method": "The peptides active in vitro were also checked in tests carried out in vivo. Injected into 6 weeks old thymectomised mice and used 8 weeks after the thymectomy, the peptides produce the appearance at the 15th minute in the serum of a biological activity conferring the sensitivity to the azothioprine of the spleen cells forming rosettes. […] (2) Activity in vivo (study of the serum 2 hours and 4 hours after injection into thymectomised mice in different quantities (0.1, 1 or 10 ng) of peptide absorbed on carboxymethyl cellulose). The results of the tests in vivo on the serum and on the spleen, set out in Tables II, III and IV, were established by the procedure as previously indicated."}}, "note": "Square brackets hold non-standard residues; d marks the D form. Ends that are not written are not given here. Peptide text beside a SMILES is read from it. pGlu = O=C1CC[C@@H](C(=O)O)N1; βAla = NCCC(=O)O", "data": [{"molecule": "C[C@H](NC(=O)[C@@H]1CCC(=O)N1)C(=O)N[C@@H](CCCCN)C(=O)N[C@@H](CO)C(=O)N[C@@H](CCC(N)=O)C(=O)N[C@H](C)C(=O)NCC(=O)N[C@@H](CO)C(=O)N[C@@H](CC(N)=O)C(=O)O", "note": "[Peptide 89, PyroGlu-Ala-Lys-Ser-Gln-D-Ala-Gly-Ser-Asn] ([pGlu]AKSQ[dA]GSN-OH)", "values": [{"measurement": "Time of the activity peak in the serum after injection", "setting": "thymectomised mice [1]", "value": "~60", "unit": "min"}]}, {"molecule": "CC(=O)NCCCC[C@H](NC(=O)[C@H](C)NC(=O)[C@@H]1CCC(=O)N1)C(=O)N[C@@H](CO)C(=O)N[C@@H](CCC(N)=O)C(=O)NCC(=O)NCC(=O)N[C@@H](CO)C(=O)N[C@@H](CC(N)=O)C(=O)O", "note": "[Peptide 62, PyroGlu-Ala-Lys(Ac)-Ser-Gln-Gly-Gly-Ser-Asn] ([pGlu]AK(Ac)SQGGSN-OH)", "values": [{"measurement": "Time of the activity peak in the serum after injection", "setting": "thymectomised mice [1]", "value": "~45", "unit": "min"}]}, {"molecule": "Cn1cnc([N+](=O)[O-])c1Sc1ncnc2nc[nH]c12", "note": "[azathioprine]", "values": [{"measurement": "IC50", "setting": "[2]; Mus musculus, spleen cells coming from normal mice, read-out: minimal concentration of Az inhibiting 50% of the cells of the spleen forming rosettes (RFC)", "value": 1, "unit": "µg/mL"}]}, {"molecule": "C[C@H](NC(=O)[C@@H]1CCC(=O)N1)C(=O)N[C@@H](CCCCN)C(=O)N[C@@H](CO)C(=O)N[C@@H](CCC(N)=O)C(=O)NCC(=O)NCC(=O)N[C@@H](CO)C(=O)NCCC(N)=O", "note": "[Peptide 86, PyroGlu-Ala-Lys-Ser-Gln-Gly-Gly-Ser-β-Ala-NH2] ([pGlu]AKSQGGS[βAla]-NH2)", "values": [{"measurement": "Spleens (test in vivo) 24 hours after injection: Quantity of azathioprine", "setting": "[3]", "value": 12, "unit": "µg"}, {"measurement": "Activity in vitro", "setting": "[2]; Table I, rosette test", "value": "+ (active)"}, {"measurement": "Active concentration (ng/ml) (test in vitro)", "setting": "[2]; Table III, rosette test, azathioprine 10 μg/ml, 90 minutes at 37° C.", "value": "7.10^-3 ng/ml"}, {"measurement": "Bonding with the antibodies", "setting": "antibodies; Table I", "value": "-"}, {"measurement": "Bonding with the antibodies", "setting": "antibodies; Table IV", "value": "-"}, {"measurement": "Activity in vivo", "setting": "thymectomised mice [4]; Table I, thymectomised mice", "value": "+ (active)"}, {"measurement": "Active or inactive polypeptide (conclusion from Tables I to IV)", "setting": "thymectomised mice [4]; overall judgement of the tests in vitro and in vivo", "value": "active"}]}, {"molecule": "angiotensine", "values": [{"measurement": "Activity in the rosette test (control peptides)", "setting": "[2]", "value": "inactive"}]}, {"molecule": "substance P (RPKPQQFFGLM; ends and bridges not checked; UniProt P20366 58-68, looked up) [control peptide of similar molecular weight]", "values": [{"measurement": "Activity in the rosette test (control peptides)", "setting": "[2]", "value": "inactive"}]}]}
